The values below come from patent publication US7442713B2, “2-thio-substituted imidazole derivatives and their use in pharmaceutics” (Merckle GmbH, priority 2002, dated 2008).

The structures appear in SMILES notation. pIC50: −log10 of the molar value.

Chain of activated p38α (Q16539 whole entry): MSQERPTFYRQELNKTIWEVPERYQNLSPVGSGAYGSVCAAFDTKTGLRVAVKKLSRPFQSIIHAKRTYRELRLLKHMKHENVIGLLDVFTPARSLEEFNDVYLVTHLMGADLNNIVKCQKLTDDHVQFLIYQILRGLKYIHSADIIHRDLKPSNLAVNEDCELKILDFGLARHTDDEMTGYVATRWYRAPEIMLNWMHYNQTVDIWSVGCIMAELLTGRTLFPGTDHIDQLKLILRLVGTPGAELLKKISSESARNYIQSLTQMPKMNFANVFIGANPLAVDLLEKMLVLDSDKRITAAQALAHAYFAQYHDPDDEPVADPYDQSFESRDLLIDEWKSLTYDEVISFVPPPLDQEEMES

The first experiment concerns the target activated p38α (Homo sapiens, UniProt Q16539). Kind of experiment: Kinase assay (p38α, ATF2 substrate, ELISA read-out). The experiment is classed as biochemical. As to conditions: Table 1; 100 μM ATP, 10 ng activated p38α; read-out: Kinase assay IC50. Here is the method:
At 37° C., microtiter plates were coated with 50 μl of ATF2 solution ([…]) for one hour. The plates were washed three times with water, and 50 μl of kinase mixture (50 mM tris-HCl, 10 mM MgCl2, 10 mM β-glycerol phosphate, 10 μg/ml BSA, 1 mM DTT, 100 μM ATP, 100 μM Na3VO4, 10 ng of activated p38α) with or without inhibitor were then added into the wells, and the plates were incubated at 37° C. for 1 hour. The plates were washed three times and then incubated at 37° C. with phosphorus-ATF-2 antibodies for one hour. Once more, the plates were washed three times, and goat-anti-rabbit IgG labeled with alkaline phosphatase was then added at 37° C. for one hour (to immobilize antibody-phosphorylated protein-substrate complex). After washing three times, the alkaline phosphatase-substrate solution (3 mM 4-NPP, 50 mM NaHCO3, 50 mM MgCl2, 100 μl/well) was added at 37° C. for 1.5 hours. The formation of 4-nitrophenolate was measured at 405 nm using a microtiter plate reader. The IC50 values were calculated.
Background: ELISA stands for enzyme-linked immunosorbent assay.
A word on the pIC50: it is −log10 of the IC50, conventionally taken in molar units. On to `Cn1c(SCCC(=O)N(CCO)CCO)nc(-c2ccc(F)cc2)c1-c1ccncc1` [Example 44, 3-[4-(4-Fluorophenyl)-1-methyl-5-pyridin-4-yl-1H-imidazol-2-ylsulfanyl]-N,N-bis(2-hydroxyethyl)propionamide], for which the pIC50 is 4.52. As for `CCOC(=O)CC(=O)CSc1nc(-c2ccc(F)cc2)c(-c2ccncc2)n1C` [Example 30, Ethyl 4-[4-(4-fluorophenyl)-1-methyl-5-pyridin-4-yl-1H-imidazol-2-ylsulfanyl]-3-oxobutanoate], the pIC50 is 5.32. Still for that read-out and setting: the value for `CCOC(=O)C(=O)CSc1nc(-c2ccc(F)cc2)c(-c2ccncc2)n1C` [Example 45, Ethyl 3-[4-(4-fluorophenyl)-1-methyl-5-pyridin-4-yl-1H-imidazol-2-ylsulfanyl]-2-oxopropionate] was 5.15; that for `CC(=O)C(Sc1nc(-c2ccc(F)cc2)c(-c2ccncc2)n1C)C(C)=O` [Example 28, 3-[4-(4-Fluorophenyl)-1-methyl-5-pyridin-4-yl-1H-imidazol-2-ylsulfanyl]pentane-2,4-dione] was 5.02; that for `Cn1c(SCCCC(=O)O)nc(-c2ccc(F)cc2)c1-c1ccncc1` [Example 39, 4-[4-(4-Fluorophenyl)-1-methyl-5-pyridin-4-yl-1H-imidazol-2-ylsulfanyl]butanoic acid] was 5.30.

Consider `Cn1c(SCCCCl)nc(-c2ccc(F)cc2)c1-c1ccncc1` [Example 47, 4-[2-(3-Chloropropylsulfanyl)-5-(4-fluorophenyl)-3-methyl-3H-imidazol-4-yl]pyridine], for which the negative logarithm of the IC50 (pIC50) is 5.47. Take `Cn1c(SCC(=O)O)nc(-c2ccc(F)cc2)c1-c1ccncc1` [Example 36, 2-[4-(4-Fluorophenyl)-1-methyl-5-pyridin-4-yl-1H-imidazol-2-ylsulfanyl]acetic acid]: the pIC50 is 5.80. Same read-out and setting: the same measure for `COC(=O)/C=C/CSc1nc(-c2ccc(F)cc2)c(-c2ccncc2)n1C` [Example 31, Methyl 4-[4-(4-fluorophenyl)-1-methyl-5-pyridin-4-yl-1H-imidazol-2-ylsulfanyl]but-2-enoate]: 4.38; for `Cn1c(SCCN)nc(-c2ccc(F)cc2)c1-c1ccncc1` [Example 59, 2-[4-(4-Fluorophenyl)-1-methyl-5-pyridin-4-yl-1H-imidazol-2-ylsulfanyl]ethylamine]: 5.74.

In the case of `Cn1c(SCCCN)nc(-c2ccc(F)cc2)c1-c1ccncc1` [Example 60], the negative logarithm of the IC50 (pIC50) is 5.85. For `Cn1c(SCCC(=O)NC(CO)(CO)CO)nc(-c2ccc(F)cc2)c1-c1ccncc1` [Example 43, 3-[4-(4-Fluorophenyl)-1-methyl-5-pyridin-4-yl-1H-imidazol-2-ylsulfanyl]-N-(2-hydroxy-1,1-bishydroxymethylethyl)propionamide], the negative logarithm of the IC50 (pIC50) was 4.92. As to `Cn1c(SCC(=O)N2CCOCC2)nc(-c2ccc(F)cc2)c1-c1ccncc1` [Example 32, 2-[4-(4-Fluorophenyl)-1-methyl-5-pyridin-4-yl-1H-imidazol-2-ylsulfanyl]-1-morpholin-4-ylethanone], the pIC50 is 4.05.

On to `Cn1c(SCCC(=O)O)nc(-c2ccc(F)cc2)c1-c1ccncc1` [Example 37, 3-[4-(4-Fluorophenyl)-1-methyl-5-pyridin-4-yl-1H-imidazol-2-ylsulfanyl]propionic acid], for which the pIC50 was 5.70.

As for `Cn1c(SCC(=O)NC(CO)(CO)CO)nc(-c2ccc(F)cc2)c1-c1ccncc1` [Example 40, 2-[4-(4-Fluorophenyl)-1-methyl-5-pyridin-4-yl-1H-imidazol-2-ylsulfanyl]-N-(2-hydroxy-1,1-bishydroxymethylethyl)acetamide], the pIC50 is 6.10. Consider `Cn1c(SCC(=O)N(CCO)CCO)nc(-c2ccc(F)cc2)c1-c1ccncc1` [Example 41, 2-[4-(4-Fluorophenyl)-1-methyl-5-pyridin-4-yl-1H-imidazol-2-ylsulfanyl]-N,N-bis(2-hydroxyethyl)acetamide], for which the negative-log IC50 (pIC50) was 6.39. Still for that read-out and setting: the same measure for `Cn1c(SCC(=O)N2CCCCC2)nc(-c2ccc(F)cc2)c1-c1ccncc1` [Example 33, 2-[4-(4-Fluorophenyl)-1-methyl-5-pyridin-4-yl-1H-imidazol-2-ylsulfanyl]-1-piperidin-1-ylethanone]: 4.12; for `Cn1c(SCCCN2C(=O)c3ccccc3C2=O)nc(-c2ccc(F)cc2)c1-c1ccncc1` [Example 49, 2-{3-[4-(4-Fluorophenyl)-1-methyl-5-pyridin-4-yl-1H-imidazol-2-ylsulfanyl]propyl}isoindole-1,3-dione]: 5.62.

The experiment is the same for the next values; noted with them: Table 1; at 10^−4 mol/l.
Turning to `Cn1c(SCC(=O)NCC(O)CO)nc(-c2ccc(F)cc2)c1-c1ccncc1` (stereo not shown) [Example 42, N-(2,3-Dihydroxypropyl)-2-[4-(4-fluorophenyl)-1-methyl-5-pyridin-4-yl-1H-imidazol-2-ylsulfanyl]acetamide], the “Kinase assay % at 10^−4 mol/l” value came to 90.4% at10^−4 mol/l.

Staying with this experiment, now noted: Table 1; at 10^−5 mol/l.
On to `CCOC(=O)C(Sc1nc(-c2ccc(F)cc2)c(-c2ccncc2)n1C)C(C)=O` (stereo not shown) [Example 29, Ethyl 2-[4-(4-fluorophenyl)-1-methyl-5-pyridin-4-yl-1H-imidazol-2-ylsulfanyl]-3-oxobutanoate], for which the “Kinase assay % at 10^−5 mol/l” value is listed as 13.8% at10^−5 mol/l.

The same experiment, now with this note: Table 1; at 10^−6 mol/l.
In the case of `CC(=O)CC(=O)CSc1nc(-c2ccc(F)cc2)c(-c2ccncc2)n1C` [Example 38, 1-[4-(4-Fluorophenyl)-1-methyl-5-pyridin-4-yl-1H-imidazol-2-ylsulfanyl]pentane-2,4-dione], the “Kinase assay % at 10^−6 mol/l” value is 12.22% at10^−6 mol/l. Still for that read-out and setting: the same measure for `Cn1c(SCCN2C(=O)c3ccccc3C2=O)nc(-c2ccc(F)cc2)c1-c1ccncc1` [Example 48, 2-{2-[4-(4-Fluorophenyl)-1-methyl-5-pyridin-4-yl-1H-imidazol-2-ylsulfanyl]ethyl}isoindole-1,3-dione]: 30.9% at 10^−6 mol/l.

Still in this experiment, the particulars now being: Table 2; at 1 μM.
A word on the inhibition: it is the percentage by which the read-out fell short of the control. In the case of `Cn1c(SCCC(=O)O)nc(-c2ccc(F)cc2)c1-c1ccnc(N)c1` [Example 72, 3-[5-(2-Aminopyridin-4-yl)-4-(4-fluorophenyl)-1-methyl-1H-imidazol-2-ylsulfanyl]propionic acid], the inhibition at 1 µM was 64%. Same read-out and setting: the same measure for `CC(=O)Nc1cc(-c2c(-c3ccc(F)cc3)nc(SCC(O)CO)n2C)ccn1` (stereo not shown) [Example 67, N-{4-[2-(2,3-dihydroxypropanesulfanyl)-5-(4-fluorophenyl)-3-methyl-3H-imidazol-4-yl]pyridin-2-yl}acetamide]: 77%.

On to `CCOC(=O)CCSc1nc(-c2ccc(F)cc2)c(-c2ccnc(NC(C)=O)c2)n1C` [Example 70, Ethyl 3-[5-(2-acetylaminopyridin-4-yl)-4-(4-fluorophenyl)-1-methyl-1H-imidazol-2-ylsulfanyl]propionate], for which the inhibition at 1 µM was determined as 83%.

For `CC(=O)Nc1cc(-c2c(-c3ccc(F)cc3)nc(SCC(=O)N(CCO)CCO)n2C)ccn1` [Example 69, 2-[5-(2-Acetylaminopyridin-4-yl)-4-(4-fluorophenyl)-1-methyl-1H-imidazol-2-ylsulfanyl]-N,N-bis(2-hydroxyethyl)acetamide], the inhibition at 1 µM came out at 90%. As for `Cn1c(SCC(=O)N(CCO)CCO)nc(-c2ccc(F)cc2)c1-c1ccnc(N)c1` [Example 71, 2-[5-(2-Aminopyridin-4-yl)-4-(4-fluorophenyl)-1-methyl-1H-imidazol-2-ylsulfanyl]-N,N-bis(2-hydroxyethyl)acetamide], the inhibition at 1 µM turned out to be 76%.

Still in this experiment, the particulars now being: Table 2; read-out: p38α IC50.
Take `CC(=O)Nc1cc(-c2c(-c3ccc(F)cc3)nc(SCC(O)CO)n2C)ccn1` (stereo not shown) [Example 67, N-{4-[2-(2,3-dihydroxypropanesulfanyl)-5-(4-fluorophenyl)-3-methyl-3H-imidazol-4-yl]pyridin-2-yl}acetamide]: the pIC50 was 6.37. In the case of `CCOC(=O)CCSc1nc(-c2ccc(F)cc2)c(-c2ccnc(NC(C)=O)c2)n1C` [Example 70, Ethyl 3-[5-(2-acetylaminopyridin-4-yl)-4-(4-fluorophenyl)-1-methyl-1H-imidazol-2-ylsulfanyl]propionate], the pIC50 was 6.28. Still for that read-out and setting: the same measure for `CC(=O)Nc1cc(-c2c(-c3ccc(F)cc3)nc(SCC(=O)N(CCO)CCO)n2C)ccn1` [Example 69, 2-[5-(2-Acetylaminopyridin-4-yl)-4-(4-fluorophenyl)-1-methyl-1H-imidazol-2-ylsulfanyl]-N,N-bis(2-hydroxyethyl)acetamide]: 6.60; for `Cn1c(SCC(=O)N(CCO)CCO)nc(-c2ccc(F)cc2)c1-c1ccnc(N)c1` [Example 71, 2-[5-(2-Aminopyridin-4-yl)-4-(4-fluorophenyl)-1-methyl-1H-imidazol-2-ylsulfanyl]-N,N-bis(2-hydroxyethyl)acetamide]: 6.05; for `Cn1c(SCC(O)CO)nc(-c2ccc(F)cc2)c1-c1ccncc1` (stereo not shown) [Example 57, 3-[4-(4-Fluorophenyl)-1-methyl-5-pyridin-4-yl-1H-imidazol-2-yl-sulfanyl]propan-1,2-diol]: 5.44.
